Experimental data published in patent US12486267B2, “Imidazo[1,2-A]pyridine and [1,2,4]triazolo[1,5-A]pyridine derivatives as TLR9 inhibitors for the treatment of fibrosis” (BRISTOL-MYERS SQUIBB COMPANY, priority 2020, dated 2025).
pIC50: −log10 of the molar value.

How the values were obtained:
Assay type in all cases: cell-based
human TLR9 = biological target: T1, human TLR9 (Homo sapiens, UniProt Q9NR96); assay: TLR9 inhibition reporter assay (HEK-Blue cells, SEAP reporter); details: HEK-Blue cells overexpressing human TLR9; stimulated with ODN2006 5 nM; 22 hour incubation; SEAP readout
T1 sequence (Q9NR96 26-1032): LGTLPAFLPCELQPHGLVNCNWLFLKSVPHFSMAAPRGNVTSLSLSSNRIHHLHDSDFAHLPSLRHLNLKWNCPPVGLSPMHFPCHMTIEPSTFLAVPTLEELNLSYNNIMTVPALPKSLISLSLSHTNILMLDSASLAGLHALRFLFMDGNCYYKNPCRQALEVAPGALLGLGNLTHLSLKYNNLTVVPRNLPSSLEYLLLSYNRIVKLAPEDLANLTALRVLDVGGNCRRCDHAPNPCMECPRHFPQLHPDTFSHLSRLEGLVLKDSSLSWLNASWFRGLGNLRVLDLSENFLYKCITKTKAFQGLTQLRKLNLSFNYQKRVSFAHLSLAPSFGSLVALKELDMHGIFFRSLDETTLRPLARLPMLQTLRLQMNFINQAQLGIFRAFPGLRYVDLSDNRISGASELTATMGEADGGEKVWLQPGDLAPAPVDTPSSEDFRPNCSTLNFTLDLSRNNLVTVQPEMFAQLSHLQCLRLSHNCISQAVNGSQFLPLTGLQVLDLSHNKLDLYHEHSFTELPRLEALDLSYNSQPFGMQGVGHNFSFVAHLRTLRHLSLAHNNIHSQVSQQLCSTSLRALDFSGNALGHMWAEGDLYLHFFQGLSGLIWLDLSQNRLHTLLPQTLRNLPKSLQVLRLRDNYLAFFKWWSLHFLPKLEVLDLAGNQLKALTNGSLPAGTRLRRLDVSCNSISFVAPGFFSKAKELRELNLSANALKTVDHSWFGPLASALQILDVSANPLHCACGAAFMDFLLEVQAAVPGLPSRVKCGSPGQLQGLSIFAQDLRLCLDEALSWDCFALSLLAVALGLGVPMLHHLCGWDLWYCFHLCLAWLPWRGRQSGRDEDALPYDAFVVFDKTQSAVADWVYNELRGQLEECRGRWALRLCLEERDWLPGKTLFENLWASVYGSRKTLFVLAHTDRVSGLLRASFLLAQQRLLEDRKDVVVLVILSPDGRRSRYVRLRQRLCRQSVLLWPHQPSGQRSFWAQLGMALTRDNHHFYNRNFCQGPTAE
Outline: (§1)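 HEK-Blue cells with an NF-κB/AP-1-driven SEAP reporter were pre-treated 30 min at room temperature with compound (0.05 nM–50 μM), then stimulated with gardiquimod 7.5 μM (TLR7), R848 15.9 μM (TLR8) or ODN2006 5 nM (TLR9). After 22 h at 37 °C, SEAP was read; % inhibition was referenced to agonist+DMSO and known-inhibitor wells.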

human TLR7 = biological target: T2, human TLR7 (Homo sapiens, UniProt Q9NYK1); assay: TLR7 inhibition reporter assay (HEK-Blue cells, SEAP reporter); details: HEK-Blue cells overexpressing human TLR7; stimulated with gardiquimod 7.5 μM; 22 hour incubation; SEAP readout
T2 sequence (Q9NYK1 27-1049): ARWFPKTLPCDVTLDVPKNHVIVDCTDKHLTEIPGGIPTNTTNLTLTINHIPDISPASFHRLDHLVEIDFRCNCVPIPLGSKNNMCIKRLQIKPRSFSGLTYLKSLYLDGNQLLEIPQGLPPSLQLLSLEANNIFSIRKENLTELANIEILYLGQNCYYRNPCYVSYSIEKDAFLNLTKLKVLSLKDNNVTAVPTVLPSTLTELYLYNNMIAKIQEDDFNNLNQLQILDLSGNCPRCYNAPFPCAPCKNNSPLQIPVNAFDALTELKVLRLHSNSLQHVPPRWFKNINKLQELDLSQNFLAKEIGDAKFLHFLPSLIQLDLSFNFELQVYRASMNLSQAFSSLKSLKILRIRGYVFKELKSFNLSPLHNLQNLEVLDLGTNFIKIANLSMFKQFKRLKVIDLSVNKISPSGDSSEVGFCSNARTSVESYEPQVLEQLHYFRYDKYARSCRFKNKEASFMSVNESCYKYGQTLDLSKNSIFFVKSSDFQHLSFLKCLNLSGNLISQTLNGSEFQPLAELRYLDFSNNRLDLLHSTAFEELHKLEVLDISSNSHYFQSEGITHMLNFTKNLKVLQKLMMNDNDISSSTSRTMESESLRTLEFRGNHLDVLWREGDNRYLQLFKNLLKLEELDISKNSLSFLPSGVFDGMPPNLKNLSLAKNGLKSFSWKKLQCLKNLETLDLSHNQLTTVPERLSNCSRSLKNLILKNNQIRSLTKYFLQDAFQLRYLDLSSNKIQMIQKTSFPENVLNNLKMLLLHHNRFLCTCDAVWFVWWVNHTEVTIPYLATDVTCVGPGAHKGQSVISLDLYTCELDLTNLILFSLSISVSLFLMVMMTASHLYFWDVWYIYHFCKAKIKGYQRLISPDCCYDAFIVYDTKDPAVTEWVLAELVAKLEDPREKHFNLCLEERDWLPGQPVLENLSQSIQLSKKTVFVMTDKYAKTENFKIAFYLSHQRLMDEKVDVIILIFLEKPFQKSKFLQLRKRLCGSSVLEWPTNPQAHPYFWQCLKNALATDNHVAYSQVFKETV
Outline: as §1

human TLR8 = biological target: T3, human TLR8 (Homo sapiens, UniProt Q9NR97); assay: TLR8 inhibition reporter assay (HEK-Blue cells, SEAP reporter); details: HEK-Blue cells overexpressing human TLR8; stimulated with R848 15.9 μM; 22 hour incubation; SEAP readout
T3 sequence (Q9NR97 27-1041): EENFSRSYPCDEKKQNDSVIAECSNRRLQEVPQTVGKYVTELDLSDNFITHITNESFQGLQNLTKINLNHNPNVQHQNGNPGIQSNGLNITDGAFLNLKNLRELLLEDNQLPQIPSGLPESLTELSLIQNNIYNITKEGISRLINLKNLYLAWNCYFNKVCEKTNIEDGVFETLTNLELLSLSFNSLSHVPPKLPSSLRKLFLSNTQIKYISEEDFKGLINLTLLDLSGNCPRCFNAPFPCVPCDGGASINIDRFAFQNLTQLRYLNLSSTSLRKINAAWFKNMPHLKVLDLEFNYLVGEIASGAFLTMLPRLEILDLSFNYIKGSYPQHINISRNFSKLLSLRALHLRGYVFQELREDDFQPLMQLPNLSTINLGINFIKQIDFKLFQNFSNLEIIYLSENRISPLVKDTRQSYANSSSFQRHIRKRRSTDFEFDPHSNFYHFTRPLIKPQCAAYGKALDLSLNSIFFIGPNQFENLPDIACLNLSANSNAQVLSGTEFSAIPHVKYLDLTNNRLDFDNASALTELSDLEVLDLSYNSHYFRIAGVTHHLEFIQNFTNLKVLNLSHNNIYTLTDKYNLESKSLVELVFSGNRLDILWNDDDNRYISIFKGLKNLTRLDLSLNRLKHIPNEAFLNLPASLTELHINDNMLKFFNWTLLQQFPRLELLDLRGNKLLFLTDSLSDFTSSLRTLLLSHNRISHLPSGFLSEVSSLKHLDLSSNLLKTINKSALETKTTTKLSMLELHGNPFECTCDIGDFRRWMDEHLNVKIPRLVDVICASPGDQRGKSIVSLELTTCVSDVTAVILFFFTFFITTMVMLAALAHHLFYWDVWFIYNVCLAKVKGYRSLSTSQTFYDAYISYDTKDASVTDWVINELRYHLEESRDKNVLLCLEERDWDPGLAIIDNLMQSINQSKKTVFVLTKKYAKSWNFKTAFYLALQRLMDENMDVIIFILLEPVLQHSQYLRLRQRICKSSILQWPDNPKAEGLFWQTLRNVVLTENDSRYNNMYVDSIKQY
Outline: as §1

Row | Compound | pIC50 (human TLR9) | pIC50 (human TLR7) | pIC50 (human TLR8)
1 | Cc1cc(-c2ccc(N3CCN(C4CCC4)CC3)cc2)cn2cc(-c3ccc(S(C)(=O)=O)cc3)nc12 [Example 102, 6-(4-(4-cyclobutylpiperazin-1-yl)phenyl)-8-methyl-2-(4-(methylsulfonyl)phenyl) imidazo[1,2-a]pyridine] | 6.15 | 5.20 | 4.77
2 | COc1ccc(-c2cn3cc(C4CCN(C5CC6CCC(C5)N6CC5CC5)CC4)cc(C)c3n2)cc1OC (single isomer, unassigned) [Example 21, 6-(1-(8-(cyclopropylmethyl)-8-azabicyclo[3.2.1]octan-3-yl)piperidin-4-yl)-2-(3,4-dimethoxyphenyl)-8-methylimidazo[1,2-a]pyridine] | 6.90 | 5.52 | < 4.30
3 | COc1ccc(-c2cn3cc(C4CCN(C5CCN(C(C)C)CC5)CC4)cc(C)c3n2)cc1OC [Example 2, 2-(3,4-dimethoxyphenyl)-6-(1′-isopropyl-[1,4′-bipiperidin]-4-yl)-8-methylimidazo[1,2-a]pyridine] | 7.28 | 5.42 | < 4.30
4 | COc1ccc(-c2cn3c(n2)CC[C@H](C2CCN(C4CC5CCC(C4)N5C(C)C)CC2)C3)cc1OC (single isomer, unassigned) [Example 134] | 7.17 | < 4.30 | < 4.30
5 | COc1ccc(-c2cn3c(n2)CCC(C2CCN(C4CC5(C4)CN(CC4CC4)C5)CC2)C3)cc1OC (racemic) [Example 51, 6-(1-(2-(cyclopropylmethyl)-2-azaspiro[3.3]heptan-6-yl)piperidin-4-yl)-2-(3,4-dimethoxyphenyl)-5,6,7,8-tetrahydroimidazo[1,2-a]pyridine] | 7.17 | < 4.30 | < 4.30
6 | CS(=O)(=O)c1ccc(-c2cn3cc(C4CCN(C5CC6CCC(C5)N6C5CCOCC5)CC4)cc(F)c3n2)cc1 (single isomer, unassigned) [Example 121, 8-fluoro-2-(4-(methylsulfonyl)phenyl)-6-(1-(8-(tetrahydro-2H-pyran-4-yl)-8-azabicyclo[3.2.1]octan-3-yl)piperidin-4-yl) imidazo[1,2-a]pyridine] | 7.96 | 5.47 | < 4.30
7 | COc1ccc(-c2cn3cc(-c4ccc(N5CCN(CC6CC6)CC5)cc4)cc(C)c3n2)cc1OC [Example 95, 6-(4-(4-(cyclopropylmethyl)piperazin-1-yl)phenyl)-2-(3,4-dimethoxyphenyl)-8-methylimidazo[1,2-a]pyridine] | 6.27 | 6.00 | < 4.30
8 | COc1ccc(-c2cn3c(n2)CCC(C2CCN(C4CCN(CC(C)C)CC4)CC2)C3)cc1OC (racemic) [Example 31, 2-(3,4-dimethoxyphenyl)-6-(1′-isobutyl-[1,4′-bipiperidin]-4-yl)-5,6,7,8-tetrahydroimidazo[1,2-a]pyridine] | 7.59 | 5.34 | < 4.30
9 | COc1ccc(-c2cn3c(n2)CCC(C2CCN(C4CCN(C5CC5)CC4)CC2)C3)cc1OC (single isomer, unassigned) [Example 38, 6-(1′-cyclopropyl-[1,4′-bipiperidin]-4-yl)-2-(3,4-dimethoxyphenyl)-5,6,7,8-tetrahydroimidazo[1,2-a]pyridine] | 7.35 | 5.22 | < 4.30
10 | COc1ccc(-c2cn3c(n2)CCC(C2CCN(C4CC5(C4)CN(CC(C)C)C5)CC2)C3)cc1OC (single isomer, unassigned) [Example 54, 2-(3,4-dimethoxyphenyl)-6-(1-(2-isobutyl-2-azaspiro[3.3]heptan-6-yl)piperidin-4-yl)-5,6,7,8-tetrahydroimidazo[1,2-a]pyridine] | 8.82 | 6.08 | < 4.30
11 | CS(=O)(=O)c1ccc(-c2cn3cc(C4CCN(C5CCCN(CC6CC6)CC5)CC4)cc(F)c3n2)cc1 (single isomer, unassigned) [Example 128, 6-(1-(1-(cyclopropylmethyl)azepan-4-yl)piperidin-4-yl)-8-fluoro-2-(4-(methylsulfonyl)phenyl)imidazo[1,2-a]pyridine] | 8.08 | 5.62 | < 4.30
12 | CS(=O)(=O)c1ccc(-c2cn3cc(C4CCN(C5CCN(C6COC6)CC5)CC4)cc(F)c3n2)cc1 [Example 111, 8-fluoro-2-(4-(methylsulfonyl)phenyl)-6-(1′-(oxetan-3-yl)-[1,4′-bipiperidin]-4-yl)imidazo[1,2-a]pyridine] | 6.63 | 4.89 | < 4.30
13 | CC(C)CN1CCCC(N2CCC(c3cc(F)c4nc(-c5ccc(S(C)(=O)=O)cc5)cn4c3)CC2)CC1 (single isomer, unassigned) [Example 126, 8-fluoro-6-(1-(1-isobutylazepan-4-yl)piperidin-4-yl)-2-(4-(methylsulfonyl)phenyl) imidazo[1,2-a]pyridine] | 8.11 | 5.13 | 4.33
